Source: patent publication USRE31731E, “Herbicidal 4-trifluoromethyl-4-nitrodiphenyl ethers” (priority 1978, dated 1984)

tested on: Monocots; assay: Herbicidal activity, preemergence, monocot weeds (Table II); type: in vivo; conditions: pre-emergence, 336 h, 4 lb./A., about 2 weeks, read-out: % control (percent of plants killed)
Method in brief: (§1)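 Value is mean percent kill, judged roughly 2 weeks post-treatment. Acetone/water spray at 50 gal/A, given either right after sowing in soil flats (preemergence) or once seedlings were 2 weeks old (postemergence); rates in lb/A.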

Structure (SMILES) | pest or weed control at 4483.4 g/ha
CC(C)Oc1cc(Oc2ccc(C(F)(F)F)cc2Cl)ccc1[N+](=O)[O-] [Example 4] | 98%
CCOc1cc(Oc2ccc(C(F)(F)F)cc2Cl)ccc1[N+](=O)[O-] [Example 3, 2-Chloro-α,α,α-trifluoro-p-tolyl-3-ethoxy-4-nitrophenyl ether] | 89%

same assay, conditions: pre-emergence, 336 h, 10 lb./A., about 2 weeks, read-out: % control (percent of plants killed)

Structure (SMILES) | pest or weed control at 11208.5 g/ha
CCOc1cc(Oc2ccc(C(F)(F)F)cc2Cl)ccc1[N+](=O)[O-] [Example 3, 2-Chloro-α,α,α-trifluoro-p-tolyl-3-ethoxy-4-nitrophenyl ether] | 99%

tested on: Dicots; assay: Herbicidal activity, preemergence, dicot weeds (Table II); type: in vivo; conditions: pre-emergence, 336 h, 4 lb./A., about 2 weeks, read-out: % control (percent of plants killed)
Method in brief: (§2)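 Plants were scored roughly 2 weeks post-treatment for percent kill (average percent control). Treatment was an acetone–water spray in 50 gal/acre carrier at the listed pounds per acre, applied either immediately after sowing or to 2-week-old seedlings.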

Structure (SMILES) | pest or weed control at 4483.4 g/ha
CC(C)Oc1cc(Oc2ccc(C(F)(F)F)cc2Cl)ccc1[N+](=O)[O-] [Example 4] | 100%
CCOc1cc(Oc2ccc(C(F)(F)F)cc2Cl)ccc1[N+](=O)[O-] [Example 3, 2-Chloro-α,α,α-trifluoro-p-tolyl-3-ethoxy-4-nitrophenyl ether] | 99%

same assay, conditions: pre-emergence, 336 h, 10 lb./A., about 2 weeks, read-out: % control (percent of plants killed)

Structure (SMILES) | pest or weed control at 11208.5 g/ha
CCOc1cc(Oc2ccc(C(F)(F)F)cc2Cl)ccc1[N+](=O)[O-] [Example 3, 2-Chloro-α,α,α-trifluoro-p-tolyl-3-ethoxy-4-nitrophenyl ether] | 100%

tested on: Monocots; assay: Herbicidal activity, postemergence, monocot weeds (Table II); type: in vivo; conditions: post-emergence, 336 h, 4 lb./A., about 2 weeks, read-out: % control (percent of plants killed)
Method in brief: as §1

Structure (SMILES) | pest or weed control at 4483.4 g/ha
CC(C)Oc1cc(Oc2ccc(C(F)(F)F)cc2Cl)ccc1[N+](=O)[O-] [Example 4] | 80%
CCOc1cc(Oc2ccc(C(F)(F)F)cc2Cl)ccc1[N+](=O)[O-] [Example 3, 2-Chloro-α,α,α-trifluoro-p-tolyl-3-ethoxy-4-nitrophenyl ether] | 99%

same assay, conditions: post-emergence, 336 h, 10 lb./A., about 2 weeks, read-out: % control (percent of plants killed)

Structure (SMILES) | pest or weed control at 11208.5 g/ha
CCOc1cc(Oc2ccc(C(F)(F)F)cc2Cl)ccc1[N+](=O)[O-] [Example 3, 2-Chloro-α,α,α-trifluoro-p-tolyl-3-ethoxy-4-nitrophenyl ether] | 100%

tested on: Dicots; assay: Herbicidal activity, postemergence, dicot weeds (Table II); type: in vivo; conditions: post-emergence, 336 h, 4 lb./A., about 2 weeks, read-out: % control (percent of plants killed)
Method in brief: as §2

Structure (SMILES) | pest or weed control at 4483.4 g/ha
CC(C)Oc1cc(Oc2ccc(C(F)(F)F)cc2Cl)ccc1[N+](=O)[O-] [Example 4] | 100%
CCOc1cc(Oc2ccc(C(F)(F)F)cc2Cl)ccc1[N+](=O)[O-] [Example 3, 2-Chloro-α,α,α-trifluoro-p-tolyl-3-ethoxy-4-nitrophenyl ether] | 100%

same assay, conditions: post-emergence, 336 h, 10 lb./A., about 2 weeks, read-out: % control (percent of plants killed)

Structure (SMILES) | pest or weed control at 11208.5 g/ha
CCOc1cc(Oc2ccc(C(F)(F)F)cc2Cl)ccc1[N+](=O)[O-] [Example 3, 2-Chloro-α,α,α-trifluoro-p-tolyl-3-ethoxy-4-nitrophenyl ether] | 100%

tested on: snapbeans; assay: Crop tolerance, snapbeans; type: in vivo; conditions: preemergence; 50% or less kill of crop at rates giving more than 50% kill of weeds
Description: (§3) The following test procedure is employed. Seeds of selected crops and weeds are planted in soil in flats. For preemergence tests, the flats are treated with the test compound immediately after the planting. For postemergence tests, the seeds are allowed to germinate, and after 2 weeks the flats are treated with the test compound. The compound to be evaluated is dissolved in acetone, diluted with water, and sprayed over the flats using a carrier volume equivalent to 50 gallons per acre at the rate of application (pounds per acre, lb/A.) specified in the tables. About 2 weeks after the application of the test compound, the state of growth of the plants is observed and the phytotoxic effect of the compound is evaluated. Table II gives the average percent control achieved by the test compounds in terms of the percent of the plants which are killed by the compounds.
(§4) Following the general test procedure of Example 73, diphenyl ethers are evaluated for significant tolerance (as shown by 50% or less kill of the test crop at levels of application which give more than 50% kill of many or all of the weeds of Example 73) towards some or all of the following common agronomic crops (not all compounds tested against all crops): alfalfa, snapbeans, corn, cotton, cucumbers, peanuts, rape, rice, safflower, soybeans, tomatoes, and wheat.

Structure (SMILES) | Tolerance to snapbeans
CC(C)Oc1cc(Oc2ccc(C(F)(F)F)cc2Cl)ccc1[N+](=O)[O-] [Example 4] | Tolerance

tested on: corn; assay: Crop tolerance, corn; type: in vivo; conditions: postemergence; 50% or less kill of crop at rates giving more than 50% kill of weeds
Description: as §3, §4

Structure (SMILES) | Tolerance to corn
CC(C)Oc1cc(Oc2ccc(C(F)(F)F)cc2Cl)ccc1[N+](=O)[O-] [Example 4] | Tolerance

same assay, conditions: preemergence; 50% or less kill of crop at rates giving more than 50% kill of weeds

Structure (SMILES) | Tolerance to corn
CC(C)Oc1cc(Oc2ccc(C(F)(F)F)cc2Cl)ccc1[N+](=O)[O-] [Example 4] | Tolerance

tested on: cotton; assay: Crop tolerance, cotton; type: in vivo; conditions: postemergence or layby; 50% or less kill of crop at rates giving more than 50% kill of weeds
Description: as §3, §4

Structure (SMILES) | Tolerance to cotton
CCOc1cc(Oc2ccc(C(F)(F)F)cc2Cl)ccc1[N+](=O)[O-] [Example 3, 2-Chloro-α,α,α-trifluoro-p-tolyl-3-ethoxy-4-nitrophenyl ether] | Tolerance

same assay, conditions: preemergence; 50% or less kill of crop at rates giving more than 50% kill of weeds

Structure (SMILES) | Tolerance to cotton
CC(C)Oc1cc(Oc2ccc(C(F)(F)F)cc2Cl)ccc1[N+](=O)[O-] [Example 4] | Tolerance
CCOc1cc(Oc2ccc(C(F)(F)F)cc2Cl)ccc1[N+](=O)[O-] [Example 3, 2-Chloro-α,α,α-trifluoro-p-tolyl-3-ethoxy-4-nitrophenyl ether] | Tolerance

tested on: peanuts; assay: Crop tolerance, peanuts; type: in vivo; conditions: postemergence; 50% or less kill of crop at rates giving more than 50% kill of weeds
Description: as §3, §4

Structure (SMILES) | Tolerance to peanuts
CC(C)Oc1cc(Oc2ccc(C(F)(F)F)cc2Cl)ccc1[N+](=O)[O-] [Example 4] | Tolerance

same assay, conditions: preemergence; 50% or less kill of crop at rates giving more than 50% kill of weeds

Structure (SMILES) | Tolerance to peanuts
CCOc1cc(Oc2ccc(C(F)(F)F)cc2Cl)ccc1[N+](=O)[O-] [Example 3, 2-Chloro-α,α,α-trifluoro-p-tolyl-3-ethoxy-4-nitrophenyl ether] | Tolerance

tested on: rice; assay: Crop tolerance, rice; type: in vivo; conditions: postemergence or on transplanted rice; 50% or less kill of crop at rates giving more than 50% kill of weeds
Description: as §3, §4

Structure (SMILES) | Tolerance to rice
CCOc1cc(Oc2ccc(C(F)(F)F)cc2Cl)ccc1[N+](=O)[O-] [Example 3, 2-Chloro-α,α,α-trifluoro-p-tolyl-3-ethoxy-4-nitrophenyl ether] | Tolerance

same assay, conditions: preemergence; 50% or less kill of crop at rates giving more than 50% kill of weeds

Structure (SMILES) | Tolerance to rice
CC(C)Oc1cc(Oc2ccc(C(F)(F)F)cc2Cl)ccc1[N+](=O)[O-] [Example 4] | Tolerance

tested on: safflower; assay: Crop tolerance, safflower; type: in vivo; conditions: preemergence; 50% or less kill of crop at rates giving more than 50% kill of weeds
Description: as §3, §4

Structure (SMILES) | Tolerance to safflower
CCOc1cc(Oc2ccc(C(F)(F)F)cc2Cl)ccc1[N+](=O)[O-] [Example 3, 2-Chloro-α,α,α-trifluoro-p-tolyl-3-ethoxy-4-nitrophenyl ether] | Tolerance

tested on: soybeans; assay: Crop tolerance, soybeans; type: in vivo; conditions: postemergence or layby; 50% or less kill of crop at rates giving more than 50% kill of weeds
Description: as §3, §4

Structure (SMILES) | Tolerance to soybeans
CCOc1cc(Oc2ccc(C(F)(F)F)cc2Cl)ccc1[N+](=O)[O-] [Example 3, 2-Chloro-α,α,α-trifluoro-p-tolyl-3-ethoxy-4-nitrophenyl ether] | Tolerance

same assay, conditions: preemergence; 50% or less kill of crop at rates giving more than 50% kill of weeds

Structure (SMILES) | Tolerance to soybeans
CC(C)Oc1cc(Oc2ccc(C(F)(F)F)cc2Cl)ccc1[N+](=O)[O-] [Example 4] | Tolerance
CCOc1cc(Oc2ccc(C(F)(F)F)cc2Cl)ccc1[N+](=O)[O-] [Example 3, 2-Chloro-α,α,α-trifluoro-p-tolyl-3-ethoxy-4-nitrophenyl ether] | Tolerance

tested on: wheat; assay: Crop tolerance, wheat; type: in vivo; conditions: postemergence; 50% or less kill of crop at rates giving more than 50% kill of weeds
Description: as §3, §4

Structure (SMILES) | Tolerance to wheat
CC(C)Oc1cc(Oc2ccc(C(F)(F)F)cc2Cl)ccc1[N+](=O)[O-] [Example 4] | Tolerance

same assay, conditions: preemergence; 50% or less kill of crop at rates giving more than 50% kill of weeds

Structure (SMILES) | Tolerance to wheat
CC(C)Oc1cc(Oc2ccc(C(F)(F)F)cc2Cl)ccc1[N+](=O)[O-] [Example 4] | Tolerance
